Measured values as given in article PMC3153478, “Structural Basis for Species Specific Inhibition of 17β-Hydroxysteroid Dehydrogenase Type 1 (17β-HSD1): Computational Study and Biological Validation” (PLoS ONE, 2011).
Like-named read-outs stand apart in the source and are kept apart here.

How the values were obtained:
[1] = system: human 17β-HSD1; set-up: method as in earlier work; conditions: Human placental, cytosolic fraction, substrate E1, 500 nM, cofactor NADH, 500 µM; ref literature (references indicated with the structural formulas in Fig. 3); read-out: Human IC50 17ß-HSD1; cited from earlier work
[2] = target: marmoset 17β-HSD2 (Callithrix jacchus, UniProt U3BEV1); assay: Inhibition of marmoset 17β-HSD2 (placental microsomes, tritiated E2, HPLC); assay type: biochemical, marmoset monkey (callithrix jacchus); conditions: Logit transformed values calculated from % inhibition at 50 nM inhibitor concentration (trend for <30% or >70%), placental microsomal fraction, substrate E2 500 nM, NAD+ 1500 µM; for IC50: read-out: Marmoset IC50 17ß-HSD2
marmoset 17β-HSD2, sequence (U3BEV1 entry or part of it): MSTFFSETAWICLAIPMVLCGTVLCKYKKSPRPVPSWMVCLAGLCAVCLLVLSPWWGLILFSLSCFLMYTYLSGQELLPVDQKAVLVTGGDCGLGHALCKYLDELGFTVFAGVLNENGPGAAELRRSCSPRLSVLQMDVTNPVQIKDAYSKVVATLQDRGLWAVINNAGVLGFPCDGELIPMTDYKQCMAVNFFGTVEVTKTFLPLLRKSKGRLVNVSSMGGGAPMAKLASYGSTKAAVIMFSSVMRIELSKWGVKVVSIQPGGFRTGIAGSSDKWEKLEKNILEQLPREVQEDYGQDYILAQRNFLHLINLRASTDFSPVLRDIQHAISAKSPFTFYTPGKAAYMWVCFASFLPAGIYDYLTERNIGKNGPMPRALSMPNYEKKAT
Procedure: (§1) Marmoset placental tissue was used as enzyme source and the proteins were partially purified following a described procedure. Tritiated E1 was incubated with 17β-HSD1, cofactor and inhibitor. The separation of substrate and product was performed by HPLC. In an assay similar to the 17β-HSD1 test, marmoset placental microsomes containing 17β-HSD2 were incubated with tritiated E2 in the presence of NAD^+ and inhibitor. Labelled product was quantified after HPLC separation.
(§2) [2, 4, 6, 7-^3H]-E1 and [2, 4, 6, 7-^3H]-E2 were bought from Perkin Elmer, Boston. Quickszint Flow 302 scintillator fluid was bought from Zinsser Analytic, Frankfurt. Marmoset 17β-HSD1 and 17β-HSD2 were obtained from marmoset placenta according to previously described procedures. Fresh marmoset placenta was homogenized and cytosolic and microsomal fractions were separated by centrifugation. For the partial purification of 17β-HSD1, the cytosolic fraction was precipitated with ammonium sulfate. 17β-HSD2 was obtained from the microsomal fraction.
The 17β-HSD2 inhibition assay was performed similarly to the 17β-HSD1 procedure. The microsomal fraction was incubated with NAD^+ [1500 µM], test compound and a mixture of unlabelled- and [2, 4, 6, 7-^3H]-E2 (final concentration: 500 nM, 0.11 µCi) for 20 min at 37°C. Further treatment of the samples and HPLC separation was carried out as mentioned above. The conversion rate was calculated after analysis of the resulting chromatograms according to the following equation: [drawing 2] .

[3] = system: human 17β-HSD2; set-up: method as in earlier work; conditions: Human placental, microsomal fraction, substrate E2, 500 nM, cofactor NAD+, 1500 µM; ref literature (references indicated with the structural formulas in Fig. 3); read-out: Human IC50 17ß-HSD2; cited from earlier work
[4] = target: T1, marmoset 17β-HSD1 (Callithrix jacchus, UniProt Q9GME2); assay: Inhibition of marmoset 17β-HSD1 (placental cytosolic fraction, tritiated E1, HPLC); assay type: biochemical, marmoset monkey (callithrix jacchus); conditions: for IC50: read-out: Marmoset IC50 17ß-HSD1
T1 construct: For the partial purification of 17β-HSD1, the cytosolic fraction was precipitated with ammonium sulfate; from tissue; host or cells: marmoset placenta, cytosolic fraction, ammonium sulfate precipitate
T1 sequence (Q9GME2 1-314): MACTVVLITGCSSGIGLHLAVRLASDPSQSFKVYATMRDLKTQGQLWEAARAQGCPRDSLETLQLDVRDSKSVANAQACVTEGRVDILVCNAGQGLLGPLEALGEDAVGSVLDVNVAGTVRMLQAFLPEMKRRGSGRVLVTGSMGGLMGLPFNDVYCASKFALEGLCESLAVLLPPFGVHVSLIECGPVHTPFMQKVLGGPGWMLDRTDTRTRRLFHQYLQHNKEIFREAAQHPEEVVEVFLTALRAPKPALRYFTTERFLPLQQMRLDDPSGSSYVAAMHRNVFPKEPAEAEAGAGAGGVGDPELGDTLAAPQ
Procedure: as §1, §2
Inhibitory activities were evaluated by an established method with minor modifications. Briefly, the enzyme preparation was incubated with NADH [500 µM] in the presence of potential inhibitors at 37°C in a phosphate buffer (50 mM) supplemented with 20% of glycerol and EDTA (1 mM). Inhibitor stock solutions were prepared in DMSO. The final concentration of DMSO was adjusted to 1% in all samples. The enzymatic reaction was started by addition of a mixture of unlabelled- and [2, 4, 6, 7-^3H]-E1 (final concentration: 500 nM, 0.15 µCi). After 10 min, the reaction was stopped by the addition of HgCl2 (10 mM) and the mixture was extracted with diethylether. After evaporation, the steroids were dissolved in acetonitrile. E1 and E2 were separated using acetonitrile/water (45∶55) as mobile phase in a C18 reverse phase chromatography column (Nucleodur C18 Gravity, 3 µm, Macherey-Nagel, Düren) connected to an HPLC-system (Agilent 1200 Series, Agilent Technologies, Waldbronn). Detection and quantification of the steroids were performed using a radioflow detector (Agilent 1200 Series, Agilent Technologies, Waldbronn). The conversion rate was calculated after analysis of the resulting chromatograms according to the following equation: [drawing 1] . Each value was calculated from at least three independent experiments.

[5] = Logit transformed values calculated from % inhibition, inhibitor concentration: 5 nM, placental cytosolic fraction, substrate E1 500 nM, NADH 500 µM
[6] = Logit transformed values calculated from % inhibition at 50 nM inhibitor concentration (trend for <30% or >70%), placental cytosolic fraction, substrate E1 500 nM, NADH 500 µM

| SMILES | IC50 [2] [nM] | IC50 [4, 5] [nM] | IC50 [4, 6] [nM] | Inhibitory potency toward marmoset 17β-HSD1 compared to the human enzyme ([4]; comparison in words, marmoset vs human 17β-HSD1) | IC50 [4] [nM] | Marmoset IC50 17ß-HSD1 [4, 6] | Marmoset IC50 17ß-HSD2 [2] | IC50 [1] [nM] | IC50 [3] [nM] |
| --- | --- | --- | --- | --- | --- | --- | --- | --- | --- |
| Oc1ccc(-c2ccc(-c3cccc(O)c3)s2)cc1 [Compound 3] | > 50 |  | 31 |  |  |  |  | 69 | 1950 |
| Cc1cc(-c2ccc(-c3cccc(O)c3)s2)ccc1O [Compound 4] | > 50 |  | < 50 |  |  |  |  | 46 | 1970 |
| Cc1cc(-c2cnc(-c3cccc(O)c3)s2)ccc1O [Compound 5] | > 50 |  | < 50 |  |  |  |  | 143 | 2020 |
| Oc1cccc(-c2ccc3cc(O)ccc3c2)c1 [Compound 14] |  |  |  |  | > 50 |  |  | 116 | 5640 |
| Oc1cccc(-c2ccc3c(-c4cccc(O)c4)c(O)ccc3c2)c1 [Compound 15] | > 50 |  | 32 |  |  |  |  | 36 | 959 |
| Oc1cccc(-c2ccc3c(-c4cccnc4)c(O)ccc3c2)c1 [Compound 16] | > 50 |  | > 50 |  |  |  |  | 26 | 1160 |
| Oc1cccc(-c2ccc3c(-c4ccccc4)c(O)ccc3c2)c1 [Compound 17] | > 50 |  | 52 |  |  |  |  | 20 | 540 |
| Nc1cccc(-c2c(O)ccc3cc(-c4cccc(O)c4)ccc23)c1 [Compound 18] | > 50 |  |  |  |  | n.i. |  | 53 |  |
| CS(=O)(=O)Nc1cccc(-c2c(O)ccc3cc(-c4cccc(O)c4)ccc23)c1 [Compound 19] | > 50 |  | > 50 |  |  |  |  | 15 | 403 |
| CC(=O)Nc1cccc(-c2c(O)ccc3cc(-c4cccc(O)c4)ccc23)c1 [Compound 20] |  |  | > 50 |  |  |  | n.i. | 83 | 1240 |

Now from value to molecule, other results behind:

| IC50 [2] [nM] | IC50 [4, 5] [nM] | IC50 [4, 6] [nM] | Inhibitory potency toward marmoset 17β-HSD1 compared to the human enzyme ([4]; comparison in words, marmoset vs human 17β-HSD1) | IC50 [4] [nM] | Marmoset IC50 17ß-HSD1 [4, 6] | Marmoset IC50 17ß-HSD2 [2] | SMILES | IC50 [1] [nM] | IC50 [3] [nM] |
| --- | --- | --- | --- | --- | --- | --- | --- | --- | --- |
| > 50 | < 5 |  |  |  |  |  | Oc1cccc(-c2ccc(-c3ccc(O)c(F)c3)s2)c1 [Compound 1] | 8 | 940 |
| > 50 |  | 102 |  |  |  |  | Oc1ccc(-c2cnc(-c3cccc(O)c3)s2)cc1 [Compound 2] | 50 | 4000 |
| 85 | < 5 |  |  |  |  |  | Oc1ccc(-c2ccc(-c3cc(O)cc(F)c3)s2)cc1 [Compound 6] | 42 | 463 |
| 43 | < 5 |  |  |  |  |  | Oc1cc(F)cc(-c2ccc(-c3ccc(O)c(F)c3)s2)c1 [Compound 7] | 17 | 218 |
| 43 |  | < 50 | Comparable inhibition data |  |  |  | O=C(c1cccc(O)c1)c1ccc(-c2ccc(O)cc2)s1 [Compound 12] | 33 | 478 |
